Measurements: PubChem BioAssay (NCI)
“And” between values parts separate entries of the source, which are not always exact repeats. Identical values can stand only once.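 Test compounds were applied to cells in 96-well plates for 48 hours at 5 doses. GI50 marks 50% less growth. TGI: total growth inhibition.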

Experiments:
Test in all cases: NCI tumour cell line growth inhibition, 48 h
LOX IMVI melanoma = tested on: LOX IMVI melanoma
MALME-3M melanoma = tested on: MALME-3M melanoma
MDA-MB-435 = tested on: MDA-MB-435
NCI-H460 lung = tested on: NCI-H460 lung
OVCAR-8 ovarian = tested on: OVCAR-8 ovarian
COLO 205 colon = tested on: COLO 205 colon
HCC-2998 colon = tested on: HCC-2998 colon
RXF 393 renal = tested on: RXF 393 renal
EKVX NSCLC = tested on: EKVX NSCLC
MOLT-4 leukemia = tested on: MOLT-4 leukemia

SMILES	GI50 (LOX IMVI melanoma) [µM]	TGI (LOX IMVI melanoma) [µM]	TGI (MALME-3M melanoma) [µM]	GI50 (MDA-MB-435) [µM]	TGI (MDA-MB-435) [µM]	TGI (NCI-H460 lung) [µM]	GI50 (OVCAR-8 ovarian) [µM]	TGI (OVCAR-8 ovarian) [µM]	GI50 (COLO 205 colon) [µM]	TGI (COLO 205 colon)	GI50 (HCC-2998 colon) [µM]	TGI (HCC-2998 colon) [µM]	TGI (RXF 393 renal) [µM]	TGI (EKVX NSCLC) [µM]	GI50 (MOLT-4 leukemia) [µM]	TGI (MOLT-4 leukemia) [µM]	GI50 (MALME-3M melanoma) [µM]	GI50 (NCI-H460 lung) [µM]	GI50 (RXF 393 renal) [µM]	GI50 (EKVX NSCLC) [µM]
NC(=O)c1csc(C2OC(CO)C(O)C2O)n1 (centres undefined)	> 53.2	7900	> 7980	43.7	> 4870	> 10000	31.1	1570	4.76	> 31.6 µM and 6210 µM	75.8	> 10000	6320	5940	17.8	3600	–	–	–	–
O=S(=O)(c1ccc(Cl)cc1)C(Cl)(Cl)Cl	1.77	6.58	3.89	0.908	4.7	17	3.5	35.5	3.38	> 53.4 µM	1.42	5.87	8.91	> 21.4	0.91	> 44.3	0.244	3.79	1.47	4.68
CN1CCN(C(=O)c2cc(-c3ccc4ncnc(N5CCc6cc(F)c(Cl)cc65)c4c3)cnc2N)CC1	0.192	1.44	0.843	0.201	1.2	9.14	0.29	24.1	0.446	3.5 µM	0.242	1.65	0.48	1.55	0.127	0.664	0.123	0.224	0.0922	0.232
COc1ccc(-c2cc(-c3ccc(C)cc3)nc3nc(=S)[nH]c(N)c23)cc1	17.7	34.5	43.3	17.6	36.9	27.5	21.5	86.4	26.8	91.6 µM	23.6	42.9	44.5	96	35.6	72.3	26.7	12	20.5	25.8
O=c1[nH]c(=O)n(C2CC(O)C(COP(=O)(OCc3ccc([N+](=O)[O-])o3)N(CCCCCl)CC(O)CO)O2)cc1F (centres undefined)	< 0.0226	> 100	> 29.9	1.26	> 100	> 100	0.182	> 100	> 22.5	> 100 µM	0.401	> 100	3.6	> 100	0.285	> 100	0.207	< 0.0474	0.0243	> 28.2
COc1ccc2c(c1)N(CCO)C1=C(C(=O)OC1)C2c1cccc(F)c1 (centres undefined)	0.454	> 50	> 50	0.112	0.348	> 50	1.24	> 50	0.526	3.25 µM	1.07	> 50	> 50	> 50	0.538	> 50	0.391	0.227	0.555	1.34
O=C1OC(=O)C(=C\c2ccc3c(c2)OCO3)/C1=C/c1ccc2c(c1)OCO2	–	> 100	> 100	–	> 100	> 100	–	> 100	–	> 100 µM	–	> 100	> 100	> 100	–	> 100	–	–	–	–
N#Cc1c(N2CCOCC2)nc(=S)[nH]c1-c1ccco1	6.68	> 100	8.18	15.9	> 100	> 100	18.3	> 100	5.7	70.3 µM	25.5	> 100	> 100	78.7	4.64	51.1	2.18	4.4	12.9	5.99
OCC1OC(n2cnc3c(N/N=C\c4ccccn4)ncnc32)C(O)C1O (centres undefined)	0.0971	–	6.19	0.43	> 100	4.53	0.164	53.7	0.622	> 100 µM	0.277	> 100	2.45	97	0.0532	> 100	0.404	0.384	0.275	0.49
CC(C)C[C@H](NC(=O)CNC(=O)c1cc(Cl)ccc1Cl)B1OC(=O)CC(CC(=O)O)(C(=O)O)O1 (some centres undefined)	0.0325	0.12	0.412	0.0222	0.0612	–	0.066	1.44	0.0868	22.3 µM	0.0326	0.105	0.0438	30.8	0.0366	> 100	0.0329	0.231	0.0193	0.369
CN1C(=O)N(C)C2C1NN=c1s/c(=C\c3ccc(C(F)(F)F)cc3)c(=O)n12 (centres undefined)	0.854	> 100	> 100	0.312	1.34	> 100	2.71	55.7	0.776	4.72 µM	2.68	> 100	6.77	> 100	2.55	> 100	8.33	0.715	1.73	4.17
Fc1ccc(/C=N/n2c(-c3ccc(F)c(Cl)c3)nn(CNc3ccccc3C(F)(F)F)c2=S)cc1	54.9	> 100	95.7	43.1	> 100	> 100	43.1	> 100	47.7	> 100 µM	89.7	> 100	> 100	> 100	28.4	> 100	27.2	43.3	59.4	37.2
O=C(/C=C/c1ccccc1)CCN1CCOCC1	–	24.8	36.4	–	30.9	35.8	–	38.5	–	20 µM	–	38	26.1	30.6	–	29.7	–	–	–	–
